According to US20250281474A1, “PHARMACEUTICAL COMPOSITION FOR TREATING COGNITIVE DECLINE OR FOR TREATING OVERWEIGHTNESS OR OBESITY” (University of the Ryukyus, priority 2021, published 2025):

Experiments:
NMDAR [1] = test: Ca2+ imaging of hippocampal brain slices, NMDA+glycine application (NMDA reaction), HFD-fed mice; type: cell-based, mouse; settings: slices of HFD-fed mice given PER 5 mg/kg/day orally, 50 μM NMDA + 10 μM glycine, N=5
[2] = test system: AMPAR subunits GluA1-4 mRNA; test: qRT-PCR of AMPAR/NMDAR subunits in hippocampal regions, Ca2+ permeability index; type: in vivo, mouse
Method: After preparing and collecting hippocampal slices, CA1, CA2, CA3, DG, and EC regions were separated from hippocampal slices using a dissection knife from […] background mice and ob/ob mice, respectively. The CA1, CA2, CA3, DG, and EC regions of mice were separated and immediately lysed in disposable homogenization tube BioMasher2 (trademark) (Nippi, Tokyo, Japan) using 0.5 mL of TRIzol RNA isolation reagent (Thermo Fisher Scientific, Wilmington, DE). Total RNA was individually extracted from each region according to the remaining protocol of the TRIzol RNA isolation reagent provided by the manufacturer (Thermo Fisher Scientific, Wilmington, DE). 1 μg of total RNA was reverse transcribed using PrimeScript RT Reagent Kit (Takara, Shiga, Japan). An aliquot of the obtained cDNA was diluted 1:10 and added to a master mix of TB Green Premix ExTaq (Takara, Shiga, Japan), and real-time PCR was performed using a 7500 Fast Real-Time PCR system (Applied Biosystems, Foster City, CA, USA) according to the manufacturer's instructions. The conditions for real-time PCR were as follows. 40 cycles of 95° C. for 30 seconds, then 95° C. for 5 seconds and 60° C. for 34 seconds. The fluorescence intensity was measured for each annealing step and the threshold cycle time was determined using 7500 software. In addition, relative expression levels of β-actin were normalized to respective controls (vehicle group). The relative expression level of the target gene in each sample was determined using a standard curve and further normalized to the expression level of R-actin of the same sample. The sequences of primers and probes for these genes are shown in Supplemental Table 2. The “ratio of GluA2 mRNA amount/(GluA1+GluA3+GluA4 mRNA amount” was used as a Ca^2+ permeability index.
GluA2 is edited at the Q/R site within the reentry M2 membrane loop region by adenosine deaminase (ADAR2), which acts on RNA type 2 involved in editing double-stranded RNA from adenosine (A) to inosine (I) (review, refer to 15, 16 and 17). Attempts were made to determine real-time quantitative reverse transcription polymerase chain reaction (qRT-PCR), subunit composition of AMPAR and NMDAR. Total RNA in hippocampal subregions (CA1, CA3, DG, EC) was separated, and quantitative analysis of mRNA of GluA1, GluA2, GluA3, and GluA4 for AMPAR, and GluN1, GluN2A, GluN2B, and GluN2C for NMDAR was performed by qRT-PCR. […] Based on the mRNA amount of each subunit, the ratio of GluA2 to other GluA subunits (FIG. 2B) was determined. The ratio was defined as a Ca^2+ permeability index.

ob/ob mice = test: Immunohistochemical analysis (MAP2, GluA1, GluA2, DCX), ob/ob mice; type: in vivo, mouse; settings: ob/ob mice with PER
Text: Mouse brains were perfusion-fixed with 4% paraformaldehyde, embedded in paraffin, and cut into 4 micrometer thick sections to be used for immunohistochemical analysis of monoclonal antibodies against DCX (E-6 monoclonal, 1:50, Santa Cruz Biotechnology Inc, Dallas, USA), MAP2ab (AP-20 monoclonal, 1:100, SIGMA-ALDRICH, St. Louis, USA), GluA1 (AB1540 polyclonal, 1:100, EMD Millipore Corp., Burlington, USA), and GluA2 (AB 1768-1 polyclonal, 1:5, EMD Millipore Corp., Burlington, USA).
The immunostained region in each of the expression regions of MAP2, GluA1, and GluA2 was acquired using a ZVI format AxioVision (Carl Zeiss, Germany) microscope (objective lens 20×). Generation of data image processing with image segmentation was performed using machine learning with ZEN Intelliesis software. 1000 or more cells were examined in each group. One-way variance analysis was used for testing variance among the three groups excluding data of 3SD or higher. Then, the following number of samples was used.
Similar to the HFD mouse model, ob/ob mice had reduced dendritic arbors integrity as determined by MAP2 staining (FIG. 12). […] In addition, the maturation of the protrusions of DCX-positive cells progressed by treatment with PER for 12 weeks (FIG. 14).

NMDAR [3] = test: Ca2+ imaging of hippocampal brain slices, NMDA+glycine application, ob/ob mice; settings: ob/ob mice, PER administration; p<0.05
NL-GF mice = test: Novel object recognition test, AD model mice (NL-GF); type: in vivo, mouse; settings: NL-GF mice n=5; CD diet with perampanel 5 mg/kg body weight/day from 8 to 13 weeks of age
Method: Mice of CD, HFD, and HFD with PER treatment were handled daily for 5 minutes for 5 days prior to the start of the novel object recognition test. PER means the perampanel, which is an AMPA receptor antagonist. The mice were habituated to a 35 cm square, 25 cm high box for 10 minutes on the first day, and were given 2 identical objects (familiar objects) for 10 minutes on the second day. On the third day, one of the familiar objects was replaced with a novel object of different shape and color (FIG. 2F). […] The search time for each object was measured by offline analysis (47).
NL-GF mice begin to accumulate in the brain of Aβ from 8 weeks of age (Nat. Neurosci. 2014 17,661-4). In this example, the AD model mouse (n=5) was fed a CD diet containing a perampanel at a dose of 5 mg/kg body weight/day from 8 to 13 weeks of age, and the mouse was subjected to a novel object recognition test. In the negative control (n=5), a normal CD diet without perampanel was taken.

HFD-fed mice = test: Five-trial social memory assay, HFD-fed mice; type: in vivo, mouse; settings: HFD-fed mice with PER treatment
Method: Five-trial social tests were performed as previously described (19). In summary, subject mice with CD, HFD, and HFD with PER treatment were housed individually starting 7 days before the study to establish territory dominance. On the day of the test, a female mouse was presented in the cages of subject male mice, which is a subject (FIG. 2G), and 5 min trials were performed 4 times in succession at 10 min intervals. In the fifth trial, a novel female mouse was presented (FIG. 2G) and the duration of the social investigation was recorded.

N#Cc1ccccc1-c1cc(-c2ccccn2)cn(-c2ccccc2)c1=O [PER, 3-(2-cyanophenyl)-5-(2-pyridyl)-1-phenyl-1,2-dihydropyridine-2-one]
NMDA reaction CA1 (maximum value of NF525) (NMDAR [1]; CA1): 1.20 ± 0.08 (N = 5) | NMDA reaction CA2 (maximum value of NF525) (NMDAR [1]; CA2): 1.20 ± 0.09 (N = 5) | NMDA reaction CA3 (maximum value of NF525) (NMDAR [1]; CA3): 1.12 ± 0.04 (N = 5) | NMDA reaction DG (maximum value of NF525) (NMDAR [1]; DG): 1.17 ± 0.04 (N = 5) | NMDA reaction EC (maximum value of NF525) (NMDAR [1]; EC): 1.16 ± 0.06 (N = 5) | Ca2+ permeability index CA1 ([2]; GluA2 mRNA/(GluA1+GluA3+GluA4 mRNA), HFD-fed mice with PER, CA1, N=5): 0.29 ± 0.11 (N = 5) | Ca2+ permeability index CA3 ([2]; GluA2 mRNA/(GluA1+GluA3+GluA4 mRNA), HFD-fed mice with PER, CA3, N=5): 0.26 ± 0.10 (N = 5) | Ca2+ permeability index DG ([2]; GluA2 mRNA/(GluA1+GluA3+GluA4 mRNA), HFD-fed mice with PER, DG, N=5): 0.22 ± 0.06 (N = 5) | Ca2+ permeability index EC ([2]; GluA2 mRNA/(GluA1+GluA3+GluA4 mRNA), HFD-fed mice with PER, EC, N=5): 0.30 ± 0.05(N = 5) | Ca2+ permeability index via CA1, CA3, DG, EC (reduced by HFD) ([2]; HFD-fed mice, PER administration, N=5): returned to CD-fed mouse levels | GluA2 mRNA expression in CA1 (qRT-PCR) ([2]; mice fed HFD with PER, p<0.05): significant increase | GluA1 expression in CA1 (immunoreactive regions) (ob/ob mice): restored | ratio of GluA2/GluA1 (immunoreactive regions) (ob/ob mice): restored | NMDAR function in all hippocampal subregions (NMDAR [3]): restoration | novel object recognition test (NL-GF mice): significantly distinguish | social memory (five-trial social interaction test) (HFD-fed mice): restored social memory disturbance
